{"source": "the supplement of paper PMC10307832", "test_in_all_cases": "relative viability (nuclei count vs DMSO), 5 days (fraction); higher = more cells survive", "key": {"[1]": {"test_system": "NCI-H1793", "procedure,_shortened": "(§1)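 Lung cancer cell lines were seeded in 1536-well plates and dosed by pin tool the next day, with either a single drug or a fixed anchor-drug dose combined with five library-drug doses (not always all listed) spaced in √10 steps. Five days later, one step fixed the cells and stained their nuclei (final 0.05% Triton X-100, 1% formaldehyde, 1 ug/ml Hoechst), and nuclei were counted on 4× images. Relative viability is the nuclei count in treated wells divided by the count in vehicle wells, and each value is the median of duplicate plates.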"}, "[2]": {"test_system": "LK-2", "procedure,_shortened": "as §1"}, "[3]": {"test_system": "NCI-H650", "procedure,_shortened": "as §1"}, "[4]": {"test_system": "NCI-H2347", "procedure,_shortened": "as §1"}, "[5]": {"test_system": "NCI-H1944", "procedure,_shortened": "as §1"}, "[6]": {"test_system": "COR-L23", "procedure,_shortened": "as §1"}, "[7]": {"test_system": "NCI-H1650", "procedure,_shortened": "as §1"}, "[8]": {"test_system": "NCI-H727", "procedure,_shortened": "as §1"}, "[9]": {"test_system": "201T", "procedure,_shortened": "as §1"}, "[10]": {"test_system": "PC-14", "procedure,_shortened": "as §1"}, "[11]": {"test_system": "NCI-H460", "procedure,_shortened": "as §1"}, "[12]": {"test_system": "NCI-H838", "procedure,_shortened": "as §1"}, "[13]": {"test_system": "SW 1573", "procedure,_shortened": "as §1"}, "[14]": {"test_system": "A-427", "procedure,_shortened": "as §1"}, "[15]": {"test_system": "NCI-H23", "procedure,_shortened": "as §1"}, "[16]": {"test_system": "H3255", "procedure,_shortened": "as §1"}, "[17]": {"test_system": "SW 900", "procedure,_shortened": "as §1"}, "[18]": {"test_system": "LCLC-103H", "procedure,_shortened": "as §1"}, "[19]": {"test_system": "LU99A", "procedure,_shortened": "as §1"}, "[20]": {"test_system": "PC-3 [JPC-3]", "procedure,_shortened": "as §1"}, "[21]": {"test_system": "HCC-44", "procedure,_shortened": "as §1"}, "[22]": {"test_system": "LCLC-97TM1", "procedure,_shortened": "as §1"}}, "data": [{"smiles": "O=C(O)c1ccc(-c2c[nH]c3ncc(-c4ccccc4)cc23)cc1C1CCCC1", "note": "+ O=C(CCCCCCC(=O)Nc1ccccc1)NO [Vorinostat] (partner 1 µM)", "values": [{"measurement": "relative viability", "setting": "[1]; first compound 0.04 µM", "result": 0.835}, {"measurement": "relative viability", "setting": "[1]; first compound 0.1265 µM", "result": 1.16}, {"measurement": "relative viability", "setting": "[1]; first compound 0.4 µM", "result": 0.84}, {"measurement": "relative viability", "setting": "[1]; first compound 1.265 µM", "result": 0.744}, {"measurement": "relative viability", "setting": "[2]; first compound 0.04 µM", "result": 0.333}, {"measurement": "relative viability", "setting": "[2]; first compound 0.1265 µM", "result": 0.311}, {"measurement": "relative viability", "setting": "[2]; first compound 0.4 µM", "result": 0.385}, {"measurement": "relative viability", "setting": "[2]; first compound 1.265 µM", "result": 0.199}, {"measurement": "relative viability", "setting": "[3]; first compound 0.04 µM", "result": 0.48}, {"measurement": "relative viability", "setting": "[3]; first compound 0.1265 µM", "result": 0.394}, {"measurement": "relative viability", "setting": "[3]; first compound 0.4 µM", "result": 0.413}, {"measurement": "relative viability", "setting": "[3]; first compound 1.265 µM", "result": 0.22}, {"measurement": "relative viability", "setting": "[4]; first compound 0.04 µM", "result": 0.576}, {"measurement": "relative viability", "setting": "[4]; first compound 0.1265 µM", "result": 0.773}, {"measurement": "relative viability", "setting": "[4]; first compound 0.4 µM", "result": 0.597}, {"measurement": "relative viability", "setting": "[4]; first compound 1.265 µM", "result": 0.46}, {"measurement": "relative viability", "setting": "[5]; first compound 0.04 µM", "result": 0.53}, {"measurement": "relative viability", "setting": "[5]; first compound 0.1265 µM", "result": 0.573}, {"measurement": "relative viability", "setting": "[5]; first compound 0.4 µM", "result": 0.582}, {"measurement": "relative viability", "setting": "[5]; first compound 1.265 µM", "result": 0.465}, {"measurement": "relative viability", "setting": "[6]; first compound 0.04 µM", "result": 0.468}, {"measurement": "relative viability", "setting": "[6]; first compound 0.1265 µM", "result": 0.403}, {"measurement": "relative viability", "setting": "[6]; first compound 0.4 µM", "result": 0.467}, {"measurement": "relative viability", "setting": "[6]; first compound 1.265 µM", "result": 0.233}, {"measurement": "relative viability", "setting": "[7]; first compound 0.04 µM", "result": 0.418}, {"measurement": "relative viability", "setting": "[7]; first compound 0.1265 µM", "result": 0.513}, {"measurement": "relative viability", "setting": "[7]; first compound 0.4 µM", "result": 0.538}, {"measurement": "relative viability", "setting": "[7]; first compound 1.265 µM", "result": 0.476}, {"measurement": "relative viability", "setting": "[8]; first compound 0.04 µM", "result": 0.991}, {"measurement": "relative viability", "setting": "[8]; first compound 0.1265 µM", "result": 1.19}, {"measurement": "relative viability", "setting": "[8]; first compound 0.4 µM", "result": 1.31}, {"measurement": "relative viability", "setting": "[8]; first compound 1.265 µM", "result": 1.18}, {"measurement": "relative viability", "setting": "[9]; first compound 0.04 µM", "result": 0.949}, {"measurement": "relative viability", "setting": "[9]; first compound 0.1265 µM", "result": 0.963}, {"measurement": "relative viability", "setting": "[9]; first compound 0.4 µM", "result": 0.952}, {"measurement": "relative viability", "setting": "[9]; first compound 1.265 µM", "result": 0.989}, {"measurement": "relative viability", "setting": "[10]; first compound 0.04 µM", "result": 0.733}, {"measurement": "relative viability", "setting": "[10]; first compound 0.1265 µM", "result": 0.781}, {"measurement": "relative viability", "setting": "[10]; first compound 0.4 µM", "result": 0.786}, {"measurement": "relative viability", "setting": "[10]; first compound 1.265 µM", "result": 0.723}, {"measurement": "relative viability", "setting": "[11]; first compound 0.04 µM", "result": 0.642}, {"measurement": "relative viability", "setting": "[11]; first compound 0.1265 µM", "result": 0.842}, {"measurement": "relative viability", "setting": "[11]; first compound 0.4 µM", "result": 0.831}, {"measurement": "relative viability", "setting": "[11]; first compound 1.265 µM", "result": 0.603}, {"measurement": "relative viability", "setting": "[12]; first compound 0.04 µM", "result": 0.68}, {"measurement": "relative viability", "setting": "[12]; first compound 0.1265 µM", "result": 0.773}, {"measurement": "relative viability", "setting": "[12]; first compound 0.4 µM", "result": 0.771}, {"measurement": "relative viability", "setting": "[12]; first compound 1.265 µM", "result": 0.544}, {"measurement": "relative viability", "setting": "[13]; first compound 0.04 µM", "result": 0.949}, {"measurement": "relative viability", "setting": "[13]; first compound 0.1265 µM", "result": 0.878}, {"measurement": "relative viability", "setting": "[13]; first compound 0.4 µM", "result": 0.699}, {"measurement": "relative viability", "setting": "[13]; first compound 1.265 µM", "result": 0.656}, {"measurement": "relative viability", "setting": "[14]; first compound 0.04 µM", "result": 0.822}, {"measurement": "relative viability", "setting": "[14]; first compound 0.1265 µM", "result": 0.84}, {"measurement": "relative viability", "setting": "[14]; first compound 0.4 µM", "result": 0.793}, {"measurement": "relative viability", "setting": "[14]; first compound 1.265 µM", "result": 0.742}, {"measurement": "relative viability", "setting": "[15]; first compound 0.04 µM", "result": 0.791}, {"measurement": "relative viability", "setting": "[15]; first compound 0.1265 µM", "result": 0.844}, {"measurement": "relative viability", "setting": "[15]; first compound 0.4 µM", "result": 0.588}, {"measurement": "relative viability", "setting": "[15]; first compound 1.265 µM", "result": 0.575}, {"measurement": "relative viability", "setting": "[16]; first compound 0.04 µM", "result": 0.872}, {"measurement": "relative viability", "setting": "[16]; first compound 0.1265 µM", "result": 0.795}, {"measurement": "relative viability", "setting": "[16]; first compound 0.4 µM", "result": 0.83}, {"measurement": "relative viability", "setting": "[16]; first compound 1.265 µM", "result": 0.791}, {"measurement": "relative viability", "setting": "[17]; first compound 0.04 µM", "result": 0.602}, {"measurement": "relative viability", "setting": "[17]; first compound 0.1265 µM", "result": 0.611}, {"measurement": "relative viability", "setting": "[17]; first compound 0.4 µM", "result": 0.582}, {"measurement": "relative viability", "setting": "[17]; first compound 1.265 µM", "result": 0.437}, {"measurement": "relative viability", "setting": "[18]; first compound 0.04 µM", "result": 0.777}, {"measurement": "relative viability", "setting": "[18]; first compound 0.1265 µM", "result": 0.758}, {"measurement": "relative viability", "setting": "[18]; first compound 0.4 µM", "result": 0.779}, {"measurement": "relative viability", "setting": "[18]; first compound 1.265 µM", "result": 0.76}, {"measurement": "relative viability", "setting": "[19]; first compound 0.04 µM", "result": 0.583}, {"measurement": "relative viability", "setting": "[19]; first compound 0.1265 µM", "result": 0.46}, {"measurement": "relative viability", "setting": "[19]; first compound 0.4 µM", "result": 0.469}, {"measurement": "relative viability", "setting": "[19]; first compound 1.265 µM", "result": 0.421}, {"measurement": "relative viability", "setting": "[20]; first compound 0.04 µM", "result": 0.803}, {"measurement": "relative viability", "setting": "[20]; first compound 0.1265 µM", "result": 0.836}, {"measurement": "relative viability", "setting": "[20]; first compound 0.4 µM", "result": 0.787}, {"measurement": "relative viability", "setting": "[20]; first compound 1.265 µM", "result": 0.667}, {"measurement": "relative viability", "setting": "[21]; first compound 0.04 µM", "result": 1.04}, {"measurement": "relative viability", "setting": "[21]; first compound 0.1265 µM", "result": 1.06}, {"measurement": "relative viability", "setting": "[21]; first compound 0.4 µM", "result": 1.02}, {"measurement": "relative viability", "setting": "[21]; first compound 1.265 µM", "result": 0.971}, {"measurement": "relative viability", "setting": "[22]; first compound 0.04 µM", "result": 0.876}, {"measurement": "relative viability", "setting": "[22]; first compound 0.1265 µM", "result": 0.94}, {"measurement": "relative viability", "setting": "[22]; first compound 0.4 µM", "result": 0.747}, {"measurement": "relative viability", "setting": "[22]; first compound 1.265 µM", "result": 0.525}]}]}
